# According to the OligoGym collection:
# HELM strings list units from the 5' end as sugar, base in round brackets, then linkage (d deoxyribose, r ribose, m 2'-O-methyl, p phosphodiester). Strings are as the collection lists them; they lack the last nucleoside at the 3' end of the tested compound. [moe] = 2'-O-(2-methoxyethyl) (MOE); [sp] = phosphorothioate linkage; [m5C] = 5-methylcytosine
# Target: PRNP
# Test: mouse, dose not given
# Conditions: ASO
row,Substance,3 h FOB score
1,RNA1{[moe](T)[sp].[moe](T)p.[moe](T)p.[moe](G)p.[moe]([m5C])[sp].d(T)[sp].d(G)[sp].d(T)[sp].d(T)[sp].d(A)[sp].d(T)[sp].d(A)[sp].d([m5C])[sp].d(T)[sp].d(T)[sp].[moe](T)p.[moe](T)p.[moe](A)[sp].[moe]([m5C])}$$$$ (last 3' nucleoside missing),1.25 score 0-7
2,RNA1{[moe](G)[sp].[moe]([m5C])[sp].[moe]([m5C])[sp].[moe](A)[sp].[moe]([m5C])[sp].d(A)[sp].d(T)[sp].d(A)[sp].d(T)[sp].d(A)[sp].d(G)[sp].d(G)[sp].d(G)[sp].d(T)[sp].d([m5C])[sp].[moe]([m5C])[sp].[moe](T)[sp].[moe](T)[sp].[moe](T)}$$$$ (last 3' nucleoside missing),4.25 score 0-7
3,RNA1{[moe]([m5C])[sp].[moe](G)p.[moe](T)p.[moe](T)p.[moe]([m5C])[sp].d(A)[sp].d(T)[sp].d([m5C])[sp].d(T)[sp].d(T)[sp].d(A)[sp].d(T)[sp].d(T)[sp].d([m5C])[sp].d([m5C])[sp].[moe]([m5C])p.[moe](A)p.[moe](T)[sp].[moe](T)}$$$$ (last 3' nucleoside missing),1 score 0-7
4,RNA1{[moe]([m5C])[sp].[moe](A)p.[moe]([m5C])p.[moe](A)p.[moe]([m5C])p.d(T)[sp].d(G)[sp].d(A)[sp].d([m5C])[sp].d([m5C])[sp].d(A)[sp].d(T)[sp].d(T)[sp].d(T)[sp].[moe](T)p.[moe](T)p.[moe](T)[sp].[moe](A)}$$$$ (last 3' nucleoside missing),0 score 0-7
5,RNA1{[moe](G)[sp].[moe](T)p.[moe]([m5C])p.[moe](A)p.d(T)[sp].d(A)[sp].d(A)[sp].d(T)[sp].d(T)[sp].d(T)[sp].d(T)[sp].d([m5C])[sp].d(T)[sp].d(T)[sp].[moe](A)p.[moe](G)p.[moe]([m5C])p.[moe](T)[sp].[moe](A)}$$$$ (last 3' nucleoside missing),0.25 score 0-7
6,RNA1{[moe](G)[sp].[moe]([m5C])p.[moe](T)p.[moe](T)p.d(A)[sp].d([m5C])[sp].d(T)[sp].d([m5C])[sp].d(G)[sp].d(G)[sp].d([m5C])[sp].d(T)[sp].d(T)[sp].d(G)[sp].[moe](T)p.[moe](T)p.[moe]([m5C])p.[moe]([m5C])[sp].[moe](A)}$$$$ (last 3' nucleoside missing),3.25 score 0-7
7,RNA1{[moe]([m5C])[sp].[moe](T)[sp].[moe]([m5C])p.[moe](T)p.[moe](A)p.[moe](T)p.[moe](G)p.d(T)[sp].d(T)[sp].d(T)[sp].d(T)[sp].d([m5C])[sp].d([m5C])[sp].d(A)[sp].d(G)[sp].d(T)[sp].d(G)[sp].[moe]([m5C])p.[moe]([m5C])}$$$$ (last 3' nucleoside missing),6 score 0-7
